Measured values reported in BindingDB's records for doi:10.7270/Q2930RT9 (The Scripps Research Institute Molecular Screening Center, 2014).

target: T1, Disintegrin and metalloproteinase domain-containing protein 10 (Homo sapiens, UniProt O14672); assay: potency of ADAM10 substrate cleavage blockers – biochemical, QFRET, dose response (AID 743254)
T1 sequence (O14672 whole entry): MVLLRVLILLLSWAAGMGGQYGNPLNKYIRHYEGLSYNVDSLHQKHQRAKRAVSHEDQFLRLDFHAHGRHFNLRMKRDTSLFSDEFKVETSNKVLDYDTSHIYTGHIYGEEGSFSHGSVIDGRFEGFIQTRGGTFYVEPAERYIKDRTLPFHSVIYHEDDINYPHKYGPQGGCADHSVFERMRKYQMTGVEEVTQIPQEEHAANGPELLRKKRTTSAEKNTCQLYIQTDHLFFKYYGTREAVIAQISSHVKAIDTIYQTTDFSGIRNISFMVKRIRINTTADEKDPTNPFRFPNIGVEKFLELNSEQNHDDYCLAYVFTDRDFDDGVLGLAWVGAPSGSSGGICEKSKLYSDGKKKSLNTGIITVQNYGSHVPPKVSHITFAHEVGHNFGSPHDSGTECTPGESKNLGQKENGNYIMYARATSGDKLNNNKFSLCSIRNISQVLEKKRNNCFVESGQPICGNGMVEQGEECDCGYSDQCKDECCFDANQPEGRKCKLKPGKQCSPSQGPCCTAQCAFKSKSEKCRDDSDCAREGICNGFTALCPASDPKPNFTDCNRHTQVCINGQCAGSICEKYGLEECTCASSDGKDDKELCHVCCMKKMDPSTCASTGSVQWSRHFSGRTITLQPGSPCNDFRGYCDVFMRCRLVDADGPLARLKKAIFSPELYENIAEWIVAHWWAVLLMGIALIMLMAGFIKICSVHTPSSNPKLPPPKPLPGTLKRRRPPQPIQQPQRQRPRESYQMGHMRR

Structure (SMILES) | IC50
O=c1[nH]c(=O)n(-c2ccc(Br)cc2)c(O)c1C=NCCN1CCCCC1 | 11.7 µM
O=C1/C(=C/c2cccs2)SC(=S)N1NS(=O)(=O)c1ccccc1 | 69.5 µM
CCCNc1c(F)c(F)c2c(C)c3ccccc3nc2c1F [1,2,4-trifluoro-9-methyl-N-propyl-3-acridinamine] | 69.5 µM
Cn1nc(-c2ccccn2)nc2c(=O)n(C)c(=O)nc1-2 [1,6-dimethyl-3-(2-pyridinyl)pyrimido[5,4-e][1,2,4]triazine-5,7(1H,6H)-dione] | 69.5 µM
N#CCSc1nc2cc(C(=O)N3CCC(C(N)=O)CC3)ccc2c2nc3ccccc3n12 [1-({6-[(cyanomethyl)thio]benzimidazo[1,2-c]quinazolin-3-yl}carbonyl)piperidine-4-carboxamide] | 18.2 µM
N#Cc1c(Cl)nc(N=NCc2ccccc2)c(Cl)c1Cl [2,4,5-tris(chloranyl)-6-[(2E)-2-(phenylmethylidene)hydrazinyl]pyridine-3-carbonitrile] | 69.5 µM
Cc1ccc(OCC(=O)Nc2nnc[nH]2)c(Br)c1 [2-(2-bromanyl-4-methyl-phenoxy)-N-(1H-1,2,4-triazol-5-yl)ethanamide] | 7.45 µM
Cc1cccc(S(=O)(=O)C(C#N)c2nc3ccccc3nc2N2CCOCC2)c1 (configuration not stated) [2-(3-methylphenyl)sulfonyl-2-(3-morpholin-4-ylquinoxalin-2-yl)acetonitrile] | 69.5 µM
Cc1cccc(Oc2nc(-c3ccccn3)nc3ccccc23)c1 [2-Pyridin-2-yl-4-m-tolyloxy-quinazoline] | 69.5 µM
CCOC(=O)Cc1csc(NC(=O)c2sc3nc4cc(C)ccc4cc3c2N)n1 [2-[2-[(3-amino-7-methyl-thieno[2,3-b]quinoline-2-carbonyl)amino]thiazol-4-yl]acetic acid ethyl ester] | 7.72 µM
O=C1c2ccccc2C(=O)N1CCCc1nc(-c2ccncc2)no1 [2-[3-(3-pyridin-4-yl-1,2,4-oxadiazol-5-yl)propyl]isoindole-1,3-dione] | 37.6 µM
Cc1cc(/C=C(/C#N)c2nc3ccccc3[nH]2)c(C)n1-c1ccccc1C(=O)O [2-[3-[(Z)-2-(1H-benzimidazol-2-yl)-2-cyanoethenyl]-2,5-dimethylpyrrol-1-yl]benzoic acid] | 12.5 µM
O=C(CC1CCCCC1)Nc1nc[nH]n1 [2-cyclohexyl-N-(1H-1,2,4-triazol-5-yl)ethanamide] | 69.5 µM
Oc1cc(N(CCc2ccccc2)C(=S)Nc2cc(Cl)ccc2Cl)c(O)n1-c1c(Cl)cccc1Cl [3-[2,5-bis(chloranyl)phenyl]-1-[1-[2,6-bis(chloranyl)phenyl]-2,5-bis(oxidanylidene)pyrrolidin-3-yl]-1-(2-phenylethyl)thiourea] | 69.5 µM
O=C(O)CCc1ccc(-c2ccccc2)n1-c1cccc(C(=O)O)c1 [3-[2-(2-carboxyethyl)-5-phenyl-1-pyrrolyl]benzoic acid] | 9.61 µM
Cc1cc(C=C2C(=O)NC(=O)N(c3ccc(F)cc3)C2=O)c(C)n1-c1cccc(C(=O)O)c1 [3-[3-[(E)-[1-(4-fluorophenyl)-2,4,6-tris(oxidanylidene)-1,3-diazinan-5-ylidene]methyl]-2,5-dimethyl-pyrrol-1-yl]benzoic acid] | 19.4 µM
COc1cc(CN=O)cc(Br)c1OCc1ccc(Cl)cc1 [3-bromo-4-[(4-chlorobenzyl)oxy]-5-methoxybenzaldehyde oxime] | 69.5 µM
C(=CN=Nc1nc2ccccc2s1)Cc1ccccc1 [3-phenylacrylaldehyde 1,3-benzothiazol-2-ylhydrazone] | 69.5 µM
Cc1ccc(NCC(=O)NN=Cc2ccc(C(=O)O)cc2)cc1 [4-[[2-[(4-methylphenyl)amino]ethanoylhydrazinylidene]methyl]benzoic acid] | 15.6 µM

Structure (SMILES) | IC50
O=c1[nH][nH]c2cc(=O)n(-c3ccc(Cl)cc3)nc12 [5-(4-chlorophenyl)-1,2-dihydropyrazolo[4,3-c]pyridazine-3,6-dione] | 10.1 µM
CSc1nsc2nc(=O)c(/C=C3\C=Nc4ccccc43)c(N)n12 [5-amino-6-[(Z)-3-indolylidenemethyl]-3-(methylthio)-[1,2,4]thiadiazolo[4,5-a]pyrimidin-7-one] | 7.43 µM
CN1C(=O)C(=CNCCCCCCCCCCC(=O)O)C(=O)N(C)C1=O [11-[[1,3-dimethyl-2,4,6-tris(oxidanylidene)-1,3-diazinan-5-ylidene]methylamino]undecanoic acid] | 13.1 µM
COc1ccc(N=C(C)c2sc3ccccc3c2O)cc1 [(2Z)-2-[1-(4-methoxyanilino)ethylidene]-1-benzothiophen-3-one] | 24 µM
CC(/C=C1\N=C(SCc2ccccc2Cl)SC1=O)=C\c1ccccc1 [(4Z)-2-[(2-chlorophenyl)methylsulfanyl]-4-[(E)-2-methyl-3-phenyl-prop-2-enylidene]-1,3-thiazol-5-one] | 12 µM
COc1ccc(N2C(=O)NC(=O)C(=Cc3c[nH]c4ccc(Br)cc34)C2=O)c(OC)c1 [(5E)-5-[(5-bromo-1H-indol-3-yl)methylene]-1-(2,4-dimethoxyphenyl)pyrimidine-2,4,6(1H,3H,5H)-trione] | 5.44 µM
O=C1OCCN1C(=O)C1=[N+](c2ccc(Br)cc2)N[C-](c2ccc(F)cc2)[C@H]1c1ccc([N+](=O)[O-])cc1 [MLS000517953] | 18.5 µM
O=C1OCCN1C(=O)C1=[N+](c2ccc(Br)cc2)N[C-](c2cccc(Cl)c2)[C@H]1c1ccc([N+](=O)[O-])cc1 [MLS000517955] | 21.4 µM
Fc1c(F)c(C(F)(F)F)c(F)c(F)c1N=NCc1cccs1 [MLS000533109] | 69.5 µM
O=C1C=CC([N+](=O)[O-])=CC1CN=Nc1ccccn1 (configuration not stated) [MLS000585015] | 27.5 µM
Cc1nnc(=O)[nH]c1N=NCC1C=CC(=O)C([N+](=O)[O-])=C1 (configuration not stated) [MLS000585487] | 69.5 µM
O=C(Cn1cncn1)NN=Cc1c2ccccc2cc2ccccc12 [N-(9-anthracenylmethylideneamino)-2-(1,2,4-triazol-1-yl)acetamide] | 69.5 µM
COc1cc(OC)c(C2C3=C(CC(C)(C)CC3=O)OC(=N)C2C#N)cc1OC (configuration not stated) [SMR000054706] | 8.8 µM
CC(C)C1Nc2ccc(S(N)(=O)=O)cc2C2C=CCC21 (configuration not stated) [SMR000070348] | 13.3 µM
COc1ccc(C=CC(=O)c2c(O)n(CCC3=CCCCC3)c(=O)[nH]c2=O)cc1OC [SMR000221147] | 69.5 µM
COc1ccc(-c2nnc(SCC(=O)Nc3cc(S(=O)(=O)N4CCCCC4)ccc3Cl)n2N)cc1 [SMR000243460] | 7.72 µM
COC(=O)c1ccc(-n2c(C)cc(CN=Nc3nc(C)cc(=O)[nH]3)c2C)cc1 [SMR000364461] | 69.5 µM
COC(=O)CCCC1=CC2=CC(=O)C(C)(OC(=O)C3CCCC3)C(=O)C2=CO1 (configuration not stated) [SMR000452591] | 7.23 µM
